This is an account of results in patent US20040235049A1, “Device for presentation of polypeptides able to be used as a chip for miniaturised detection of molecules” (priority 2001, published 2004).

Like-named read-outs stand apart in the source and are kept apart here.

In the test the test system is antibodies directed against NS3 (HCV) in sera. Format: binding, human.
[1] abbreviates: Sérum 1, NS3 positive, positivity threshold 2205.
Setting [2] is: Sérum 2, NS3 positive, positivity threshold 3565.
Setting [3] is: Sérum 3, NS3 positive, positivity threshold 4374.
[4] abbreviates: Sérum 4, NS3 positive, positivity threshold 2774.
Setting [5] is: Sérum HCV-, positivity threshold 1271.

In the case of AAKLSGLGIN [Peptide 11], the Fluorescence by setting is: under setting [1], 2156; under setting [2], 1557; under setting [3], 1458; under setting [4], 5283; under setting [5], 628.
Taken in the same sequence, the figures for AIPLEAIKGG [Peptide 4] were 2899, 2988, 2497, 5598 and 1011.
Taken in the same sequence, the figures for DVSVIPTSGD [Peptide 19] were 9088, 4111, 2337, 4939 and 567.
Taken in the same sequence, the figures for EAIKGGRHLL [Peptide 8] were 2343, 1220, 1159, 2587 and 525.
Turning to ELAAKLSGLG [Peptide 9], the Fluorescence runs as follows: under setting [1], 1582; under setting [2], 1142; under setting [3], 1671; under setting [4], 2418; under setting [5], 508.
In the same order, the values of GKAIPLEAIK [Peptide 2] are 3590, 8023, 3495, 7405 and 933.
Consider GLDVSVIPTS [Peptide 17], for which the Fluorescence runs as follows: under setting [1], 7976; under setting [2], 6423; under setting [3], 2619; under setting [4], 7338; under setting [5], 754.
Taken in the same sequence, the figures for GLGINAVAYY [Peptide 16] were 4201, 5577, 1861, 5602 and 931.
In the case of IPLEAIKGGR [Peptide 5], the Fluorescence amounted to 2260 under setting [1]; 2339 under setting [2]; 1549 under setting [3]; 4739 under setting [4]; 945 under setting [5].
In the same order, the values of IPTSGDVVVV [Peptide 23] are 2983, 3394, 1818, 4505 and 904.
Taken in the same sequence, the figures for KAIPLEAIKG [Peptide 3] were 2803, 3161, 1694, 5065 and 924.
In the same order, the values of LAAKLSGLGI [Peptide 10] are 3166, 2418, 1684, 9152 and 551.
Turning to LDVSVIPTSG [Peptide 18], the Fluorescence worked out at 29857 under setting [1]; 4113 under setting [2]; 4824 under setting [3]; 6209 under setting [4]; 667 under setting [5].
In the same order, the values of LEAIKGGRHL [Peptide 7] are 1845, 1307, 1084, 3077 and 574.
In the same order, the values of PLEAIKGGRH [Peptide 6] are 2789, 3136, 2821, 5932 and 957.
In the same order, the values of PTSGDYVVVA [Peptide 24] are 1835, 1436, 1387, 3532 and 573.
Take SGLGINAVAY [Peptide 15]: the Fluorescence is reported as 17944 under setting [1]; 10603 under setting [2]; 4786 under setting [3]; 8262 under setting [4]; 791 under setting [5].
On to SVIPTSGDVV [Peptide 21], for which the Fluorescence reads like this: under setting [1], 3553; under setting [2], 8321; under setting [3], 2244; under setting [4], 6853; under setting [5], 913.
VIPTSGDVVV [Peptide 22]: the Fluorescence reads like this: under setting [1], 1882; under setting [2], 1466; under setting [3], 1385; under setting [4], 2963; under setting [5], 648.
Taken in the same sequence, the figures for VSVIPTSGDV [Peptide 20] were 7909, 4711, 2873, 11266 and 718.
YGKAIPLEAI [Peptide 1]: the Fluorescence amounted to 3735 under setting [1]; 3143 under setting [2]; 2608 under setting [3]; 6357 under setting [4]; 917 under setting [5].
